This note sets out measurements from patent US20240182442A1, “ANHYDROUS POLYMORPHS OF ANDROGEN RECEPTOR ANTAGONIST, PREPARATION METHOD THEREFOR, AND USE THEREOF” (SUZHOU KINTOR PHARMACEUTICALS, INC., priority 2021, published 2024).

Data set [1] is described as follows: Suspension competition test of mixed crystalline forms A/B/C/D in saturated solution (thermodynamic transition). The data set is classed as physicochemical. As to the method:
To study the thermodynamic transition relationship of the four anhydrous polymorphs (respectively corresponding to A/B/C/D), samples (each sample was about 5 mg) having crystalline forms A/B/C/D were mixed and added respectively under the conditions of 5° C./room temperature (about 20° C.)/50° C./90° C. to a saturated solution of the compound of formula I (for example, ethanol or methyl tert-butyl ether) (about 1.0 mL), and stirred (magnetic stirring, about 800 rpm). solid was separated (centrifugation, about 10000 rpm, 1 min), and XRPD test was performed.

Data set [2] is described as follows: Heat treatment test under nitrogen protection (crystal transformation). It is filed as physicochemical. As to conditions: for crystal transformation on heating: nitrogen. An excerpt: At the same time, the above crystal transformation phenomenon can also be confirmed by the absorption/exothermic peaks appearing in FIG. 7 and FIG. 11.
Data set [3] is described as follows: Dynamic vapor sorption (DVS) hygroscopicity evaluation, with XRPD before and after. It is filed as physicochemical. The method, then: The DVS curves were collected on a DVS Intrinsic Dynamic Moisture Sorption meter from SMS (Surface Measurement Systems). The relative humidity at 25° C. was corrected with the deliquescence points of LiCl, Mg (NO3)2 and KCl.

Data set [4] can be described thus: Pharmacokinetic study, skin application to SD rats. As to conditions: for ratio of AUC(0-t) on day 7 to day 1: 12 mg/kg skin application once a day for 7 days. It is filed as in vivo, SD rats (Sprague-Dawley rats). From the text: The obtained blood concentration data were simultaneously used to calculate the relevant pharmacokinetic parameters using the pharmacokinetic processing software WinNonlin v5.2 […] for plasma pharmacokinetic characterization analysis.

A short description of data set [5]: Solid-state stability, one week storage, tested by XRPD and HPLC. As to conditions: for Purity (Peak area %) / Relative purity (%/Control): one week; for Purity (Peak area %): HPLC; for Relative purity (%/Control): vs 5° C. sealed control. It is filed as physicochemical. An excerpt: Samples were removed after one week, and the obtained samples were characterized and tested by XRPD and HPLC to respectively detect changes in crystalline form and purity.

On to `COc1c(C#N)ccc(N2C(=O)C(C)(C)N(c3ccc(C)nc3)C2=S)c1F` [crystalline form A, 4-[4,4-dimethyl-3-(6-methylpyridin-3-yl)-5-oxo-2-thioxoimidazolidin-1-yl]-3-fluoro-2-methoxybenzonitrile], for which the “crystal transformation by suspension agitation” value in data set [1] (less than 90° C.) is listed as “transformed into the form D”. Besides, in data set [2] (heated to about 160° C. and then cooled to room temperature), the “crystal transformation on heating” value is on record as “transformed into crystalline form B”.
As for `COc1c(C#N)ccc(N2C(=O)C(C)(C)N(c3ccc(C)nc3)C2=S)c1F` [crystalline form B, 4-[4,4-dimethyl-3-(6-methylpyridin-3-yl)-5-oxo-2-thioxoimidazolidin-1-yl]-3-fluoro-2-methoxybenzonitrile], in data set [2] (under heating conditions), the “relative stability of the crystalline form” value is “more stable than crystalline forms A/C”.
For the compound `COc1c(C#N)ccc(N2C(=O)C(C)(C)N(c3ccc(C)nc3)C2=S)c1F` [crystalline form C, 4-[4,4-dimethyl-3-(6-methylpyridin-3-yl)-5-oxo-2-thioxoimidazolidin-1-yl]-3-fluoro-2-methoxybenzonitrile], the “crystal transformation on heating” value is reported as “transformed into crystalline form B” in data set [2] (further heated to about 166° C. and cooled to room temperature); “transformed into crystalline forms B/D” in data set [2] (heated to about 148° C.).
For the compound `COc1c(C#N)ccc(N2C(=O)C(C)(C)N(c3ccc(C)nc3)C2=S)c1F` [crystalline form D, 4-[4,4-dimethyl-3-(6-methylpyridin-3-yl)-5-oxo-2-thioxoimidazolidin-1-yl]-3-fluoro-2-methoxybenzonitrile], the “hygroscopicity (conclusion in words)” value in data set [3] (DVS, 0% RH to 80% RH, 25° C.) was “almost no hygroscopicity”. In addition, the “crystalline form before and after the DVS test (XRPD)” value in data set [3] (before vs after DVS experiment) is “maintained the same crystalline form”. Besides, the “water absorbed (moisture absorption, DVS)” value in data set [3] (relative humidity increased from 0% RH to 80% RH, 25° C.) came to 0.14 wt %. The “relative stability of the crystalline form” value in data set [1] (at room temperature) was “more stable than the crystalline forms A/B/C”. Besides, the “ratio of AUC(0-t) on day 7 to day 1” value in data set [4] (female SD rats) came to 0.942; in data set [4] (male SD rats), 1.30. In addition, the “accumulation after repeated administration” value in data set [4] (male and female SD rats, 12 mg/kg skin application, 7 days) is reported as “no obvious accumulation”. In addition, the “Solid crystalline form after one week” value in data set [5] (5° C., sealed (control)) was “Crystalline form D”; in data set [5] (25° C./60% RH, open) it was “Crystalline form D”; in data set [5] (40° C./75% RH, open) it was “Crystalline form D”. The “Purity (Peak area %)” value in data set [5] (5° C., sealed (control)) was 99.9 Peak area %; in data set [5] (25° C./60% RH, open), 99.9 Peak area %; in data set [5] (40° C./75% RH, open), 99.9 Peak area %. Moreover, the “Relative purity (%/Control)” value is recorded as 100.0 %/Control in data set [5] (25° C./60% RH, open) and 100.0 %/Control in data set [5] (40° C./75% RH, open).
